Legend:
ERK1 = ERK1 (Homo sapiens, UniProt P27361); assay: Kinase enzyme activity assay (mobility shift assay, Carna); conditions: for Percentage inhibition of kinase enzyme activity: Erk1, 1 µmol/L of BTK inhibitor
HIPK4 = target: T1, HIPK4 (Homo sapiens, UniProt Q8NE63); assay: Kinase panel profiling at 1 µmol/L (mobility shift assay, Carna); format: biochemical; conditions: 1 µmol/L of BTK inhibitor
T1 construct: purchased Carna Biosciences
T1 sequence (Q8NE63 1-616): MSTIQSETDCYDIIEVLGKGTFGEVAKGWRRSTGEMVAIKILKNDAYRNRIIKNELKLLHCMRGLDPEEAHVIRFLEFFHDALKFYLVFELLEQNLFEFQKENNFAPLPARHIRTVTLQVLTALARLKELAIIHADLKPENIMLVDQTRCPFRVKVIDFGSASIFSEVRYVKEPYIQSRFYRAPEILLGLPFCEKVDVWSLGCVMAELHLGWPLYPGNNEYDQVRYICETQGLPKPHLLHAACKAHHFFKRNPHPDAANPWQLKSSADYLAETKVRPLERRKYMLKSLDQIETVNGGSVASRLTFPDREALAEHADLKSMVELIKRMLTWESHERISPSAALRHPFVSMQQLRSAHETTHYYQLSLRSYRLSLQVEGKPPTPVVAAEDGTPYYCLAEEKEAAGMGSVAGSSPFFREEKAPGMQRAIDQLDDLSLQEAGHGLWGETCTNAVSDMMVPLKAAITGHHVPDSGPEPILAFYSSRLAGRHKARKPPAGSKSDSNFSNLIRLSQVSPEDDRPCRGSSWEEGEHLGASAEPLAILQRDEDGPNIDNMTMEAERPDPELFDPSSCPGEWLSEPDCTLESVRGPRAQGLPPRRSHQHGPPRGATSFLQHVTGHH

NEK7 = target: T2, NEK7 (Homo sapiens, UniProt Q8TDX7); assay: as above; format: biochemical; conditions: 1 µmol/L of BTK inhibitor
T2 construct: purchased Carna Biosciences

PAK2 = target: T3, PAK2 (Homo sapiens, UniProt Q13177); assay: as above; format: biochemical; conditions: 1 µmol/L of BTK inhibitor
T3 construct: purchased Carna Biosciences
T3 sequence (Q13177 whole entry): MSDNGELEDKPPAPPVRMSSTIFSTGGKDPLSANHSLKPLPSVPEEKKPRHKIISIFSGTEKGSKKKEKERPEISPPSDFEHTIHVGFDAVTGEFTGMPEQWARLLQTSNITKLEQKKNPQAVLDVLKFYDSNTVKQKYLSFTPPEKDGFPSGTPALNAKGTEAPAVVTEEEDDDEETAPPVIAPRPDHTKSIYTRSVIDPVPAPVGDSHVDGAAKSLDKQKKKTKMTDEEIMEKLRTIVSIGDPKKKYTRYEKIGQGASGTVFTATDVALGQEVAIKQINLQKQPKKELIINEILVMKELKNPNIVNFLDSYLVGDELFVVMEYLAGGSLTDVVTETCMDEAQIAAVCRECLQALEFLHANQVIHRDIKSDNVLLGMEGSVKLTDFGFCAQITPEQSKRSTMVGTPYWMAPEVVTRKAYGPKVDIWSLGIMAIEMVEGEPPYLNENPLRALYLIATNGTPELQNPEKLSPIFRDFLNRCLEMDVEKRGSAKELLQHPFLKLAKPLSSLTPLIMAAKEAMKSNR

HER4 = target: T4, HER4 (Homo sapiens, UniProt Q15303); assay: as above; format: biochemical; conditions: 1 µmol/L of BTK inhibitor
T4 construct: purchased Carna Biosciences

RSK2 = target: T5, RSK2 (Homo sapiens, UniProt P51812); assay: as above; format: biochemical; conditions: 1 µmol/L of BTK inhibitor
T5 construct: purchased Carna Biosciences

FMS = target: T6, FMS (Homo sapiens, UniProt P07333); assay: as above; format: biochemical; conditions: 1 µmol/L of BTK inhibitor
T6 construct: purchased Carna Biosciences
T6 sequence (P07333 20-972): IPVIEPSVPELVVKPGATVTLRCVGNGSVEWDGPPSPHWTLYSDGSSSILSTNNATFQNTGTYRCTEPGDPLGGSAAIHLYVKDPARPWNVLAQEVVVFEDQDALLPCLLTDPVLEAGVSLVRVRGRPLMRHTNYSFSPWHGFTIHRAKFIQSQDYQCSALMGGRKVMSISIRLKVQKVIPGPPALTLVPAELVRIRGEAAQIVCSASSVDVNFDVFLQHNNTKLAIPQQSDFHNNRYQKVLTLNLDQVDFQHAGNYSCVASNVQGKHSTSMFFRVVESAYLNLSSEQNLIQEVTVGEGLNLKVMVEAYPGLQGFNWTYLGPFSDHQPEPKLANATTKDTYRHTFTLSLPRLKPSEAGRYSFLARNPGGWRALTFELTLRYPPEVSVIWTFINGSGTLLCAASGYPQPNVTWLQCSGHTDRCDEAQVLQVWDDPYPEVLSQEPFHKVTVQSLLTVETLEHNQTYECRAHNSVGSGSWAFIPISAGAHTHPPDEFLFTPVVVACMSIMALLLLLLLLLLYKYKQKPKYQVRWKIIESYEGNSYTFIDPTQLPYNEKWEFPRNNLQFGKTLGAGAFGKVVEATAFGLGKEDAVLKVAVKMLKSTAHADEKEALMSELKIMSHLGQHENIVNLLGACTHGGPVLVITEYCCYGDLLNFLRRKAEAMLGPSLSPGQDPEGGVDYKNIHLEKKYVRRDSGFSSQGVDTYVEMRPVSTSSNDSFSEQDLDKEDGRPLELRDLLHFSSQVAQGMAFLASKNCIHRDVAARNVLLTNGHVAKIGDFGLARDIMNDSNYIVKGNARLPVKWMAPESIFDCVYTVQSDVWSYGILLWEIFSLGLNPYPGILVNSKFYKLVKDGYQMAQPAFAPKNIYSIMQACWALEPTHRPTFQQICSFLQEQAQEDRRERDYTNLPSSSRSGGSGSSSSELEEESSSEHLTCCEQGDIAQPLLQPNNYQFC

FES = target: T7, FES (Homo sapiens, UniProt P07332); assay: as above; format: biochemical; conditions: 1 µmol/L of BTK inhibitor
T7 construct: purchased Carna Biosciences
T7 sequence (P07332 whole entry): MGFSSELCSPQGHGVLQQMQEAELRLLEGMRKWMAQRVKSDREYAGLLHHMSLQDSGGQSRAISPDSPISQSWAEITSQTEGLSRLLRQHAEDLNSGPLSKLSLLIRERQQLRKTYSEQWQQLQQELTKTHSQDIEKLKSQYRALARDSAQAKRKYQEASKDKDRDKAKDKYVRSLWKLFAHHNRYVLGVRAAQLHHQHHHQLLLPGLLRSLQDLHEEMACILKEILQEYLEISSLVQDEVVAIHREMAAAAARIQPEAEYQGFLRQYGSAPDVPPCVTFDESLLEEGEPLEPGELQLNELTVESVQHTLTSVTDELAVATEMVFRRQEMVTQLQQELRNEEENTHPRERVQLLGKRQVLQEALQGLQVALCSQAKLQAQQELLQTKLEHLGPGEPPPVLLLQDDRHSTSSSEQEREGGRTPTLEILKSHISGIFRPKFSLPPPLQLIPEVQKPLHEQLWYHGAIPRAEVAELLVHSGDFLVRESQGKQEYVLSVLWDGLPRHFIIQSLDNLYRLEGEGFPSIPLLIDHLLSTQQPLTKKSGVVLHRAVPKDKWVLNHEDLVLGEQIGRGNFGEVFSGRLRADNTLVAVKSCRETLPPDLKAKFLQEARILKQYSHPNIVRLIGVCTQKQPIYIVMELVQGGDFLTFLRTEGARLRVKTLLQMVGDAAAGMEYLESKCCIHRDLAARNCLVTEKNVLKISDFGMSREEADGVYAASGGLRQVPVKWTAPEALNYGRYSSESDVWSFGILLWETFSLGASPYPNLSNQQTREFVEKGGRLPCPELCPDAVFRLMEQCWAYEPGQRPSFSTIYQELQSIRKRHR

FGR = target: T8, FGR (Homo sapiens, UniProt P09769); assay: as above; format: biochemical; conditions: 1 µmol/L of BTK inhibitor
T8 construct: purchased Carna Biosciences
T8 sequence (P09769 whole entry): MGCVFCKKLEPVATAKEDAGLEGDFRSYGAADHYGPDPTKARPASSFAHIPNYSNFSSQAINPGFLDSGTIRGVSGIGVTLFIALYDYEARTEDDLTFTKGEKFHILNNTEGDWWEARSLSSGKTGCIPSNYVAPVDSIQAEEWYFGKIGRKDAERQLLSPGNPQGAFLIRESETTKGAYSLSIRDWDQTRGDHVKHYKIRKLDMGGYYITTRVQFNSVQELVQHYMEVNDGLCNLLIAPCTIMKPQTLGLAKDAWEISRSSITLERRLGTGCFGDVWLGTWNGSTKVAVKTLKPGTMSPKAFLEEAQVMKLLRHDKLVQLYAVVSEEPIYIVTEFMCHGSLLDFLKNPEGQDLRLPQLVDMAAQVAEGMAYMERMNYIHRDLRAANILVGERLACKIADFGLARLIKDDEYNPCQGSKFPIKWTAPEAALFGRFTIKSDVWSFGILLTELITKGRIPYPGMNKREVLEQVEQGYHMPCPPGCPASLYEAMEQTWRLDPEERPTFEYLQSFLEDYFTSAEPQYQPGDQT

TYK2 = target: T9, TYK2 (Homo sapiens, UniProt P29597); assay: as above; format: biochemical; conditions: 1 µmol/L of BTK inhibitor
T9 construct: purchased Carna Biosciences
T9 sequence (P29597 whole entry): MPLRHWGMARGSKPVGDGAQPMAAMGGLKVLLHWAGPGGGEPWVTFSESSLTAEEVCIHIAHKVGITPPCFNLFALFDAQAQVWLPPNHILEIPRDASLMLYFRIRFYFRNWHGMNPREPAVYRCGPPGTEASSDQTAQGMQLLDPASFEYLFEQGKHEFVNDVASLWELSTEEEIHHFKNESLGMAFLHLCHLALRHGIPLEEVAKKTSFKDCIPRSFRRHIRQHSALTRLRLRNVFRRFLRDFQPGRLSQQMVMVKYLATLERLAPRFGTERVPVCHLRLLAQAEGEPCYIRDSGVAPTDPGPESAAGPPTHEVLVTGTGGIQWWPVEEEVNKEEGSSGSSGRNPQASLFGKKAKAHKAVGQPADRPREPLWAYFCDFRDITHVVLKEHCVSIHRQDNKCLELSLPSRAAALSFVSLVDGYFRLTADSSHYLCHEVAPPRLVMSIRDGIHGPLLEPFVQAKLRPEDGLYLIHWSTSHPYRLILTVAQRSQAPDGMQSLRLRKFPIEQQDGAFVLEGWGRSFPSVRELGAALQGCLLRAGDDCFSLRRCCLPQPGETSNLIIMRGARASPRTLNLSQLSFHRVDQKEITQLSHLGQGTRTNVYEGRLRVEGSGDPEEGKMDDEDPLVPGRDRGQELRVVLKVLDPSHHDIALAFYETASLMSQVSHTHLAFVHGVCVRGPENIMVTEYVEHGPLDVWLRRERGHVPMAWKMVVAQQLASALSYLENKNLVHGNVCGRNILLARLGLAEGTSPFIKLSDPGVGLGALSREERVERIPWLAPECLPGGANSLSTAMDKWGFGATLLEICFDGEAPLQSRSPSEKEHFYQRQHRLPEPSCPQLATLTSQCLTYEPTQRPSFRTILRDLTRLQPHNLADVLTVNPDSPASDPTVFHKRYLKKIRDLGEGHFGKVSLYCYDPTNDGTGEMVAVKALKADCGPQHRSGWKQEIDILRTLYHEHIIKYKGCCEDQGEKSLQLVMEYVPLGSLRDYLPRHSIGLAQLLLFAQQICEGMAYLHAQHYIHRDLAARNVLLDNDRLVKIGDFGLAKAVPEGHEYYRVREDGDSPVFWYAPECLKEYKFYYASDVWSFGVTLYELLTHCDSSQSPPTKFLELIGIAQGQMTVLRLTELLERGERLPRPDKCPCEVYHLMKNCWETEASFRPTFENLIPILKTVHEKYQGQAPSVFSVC

AurC = target: T10, AurC (Homo sapiens, UniProt Q9UQB9); assay: as above; format: biochemical; conditions: 1 µmol/L of BTK inhibitor
T10 construct: purchased Carna Biosciences
T10 sequence (Q9UQB9 1-309): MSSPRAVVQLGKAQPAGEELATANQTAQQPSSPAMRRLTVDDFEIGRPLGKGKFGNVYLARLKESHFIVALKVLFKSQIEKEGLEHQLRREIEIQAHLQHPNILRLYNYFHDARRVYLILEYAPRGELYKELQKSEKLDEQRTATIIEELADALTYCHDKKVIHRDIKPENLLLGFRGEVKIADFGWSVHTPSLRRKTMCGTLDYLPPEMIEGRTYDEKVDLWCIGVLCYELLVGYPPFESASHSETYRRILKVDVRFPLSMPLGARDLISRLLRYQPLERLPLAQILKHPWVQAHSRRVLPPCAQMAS

SGK = target: T11, SGK (Homo sapiens, UniProt O00141); assay: as above; format: biochemical; conditions: 1 µmol/L of BTK inhibitor
T11 construct: purchased Carna Biosciences
T11 sequence (O00141 1-431): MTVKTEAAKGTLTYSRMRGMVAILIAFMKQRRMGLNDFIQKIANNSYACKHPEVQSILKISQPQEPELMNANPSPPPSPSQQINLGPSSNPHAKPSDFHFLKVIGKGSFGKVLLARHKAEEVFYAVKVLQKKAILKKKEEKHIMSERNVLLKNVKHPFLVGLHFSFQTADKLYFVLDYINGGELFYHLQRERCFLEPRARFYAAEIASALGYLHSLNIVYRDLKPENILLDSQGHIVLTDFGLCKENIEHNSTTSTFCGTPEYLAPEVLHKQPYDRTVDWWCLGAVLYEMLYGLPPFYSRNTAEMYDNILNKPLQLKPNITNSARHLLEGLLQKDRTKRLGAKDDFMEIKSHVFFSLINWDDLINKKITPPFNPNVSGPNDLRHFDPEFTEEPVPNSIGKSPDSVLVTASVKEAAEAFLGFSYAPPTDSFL

MARK2 = target: T12, MARK2 (Homo sapiens, UniProt Q7KZI7); assay: as above; format: biochemical; conditions: 1 µmol/L of BTK inhibitor
T12 construct: purchased Carna Biosciences

MSK2 = target: T13, MSK2 (Homo sapiens, UniProt O75676); assay: as above; format: biochemical; conditions: 1 µmol/L of BTK inhibitor
T13 construct: purchased Carna Biosciences
T13 sequence (O75676 whole entry): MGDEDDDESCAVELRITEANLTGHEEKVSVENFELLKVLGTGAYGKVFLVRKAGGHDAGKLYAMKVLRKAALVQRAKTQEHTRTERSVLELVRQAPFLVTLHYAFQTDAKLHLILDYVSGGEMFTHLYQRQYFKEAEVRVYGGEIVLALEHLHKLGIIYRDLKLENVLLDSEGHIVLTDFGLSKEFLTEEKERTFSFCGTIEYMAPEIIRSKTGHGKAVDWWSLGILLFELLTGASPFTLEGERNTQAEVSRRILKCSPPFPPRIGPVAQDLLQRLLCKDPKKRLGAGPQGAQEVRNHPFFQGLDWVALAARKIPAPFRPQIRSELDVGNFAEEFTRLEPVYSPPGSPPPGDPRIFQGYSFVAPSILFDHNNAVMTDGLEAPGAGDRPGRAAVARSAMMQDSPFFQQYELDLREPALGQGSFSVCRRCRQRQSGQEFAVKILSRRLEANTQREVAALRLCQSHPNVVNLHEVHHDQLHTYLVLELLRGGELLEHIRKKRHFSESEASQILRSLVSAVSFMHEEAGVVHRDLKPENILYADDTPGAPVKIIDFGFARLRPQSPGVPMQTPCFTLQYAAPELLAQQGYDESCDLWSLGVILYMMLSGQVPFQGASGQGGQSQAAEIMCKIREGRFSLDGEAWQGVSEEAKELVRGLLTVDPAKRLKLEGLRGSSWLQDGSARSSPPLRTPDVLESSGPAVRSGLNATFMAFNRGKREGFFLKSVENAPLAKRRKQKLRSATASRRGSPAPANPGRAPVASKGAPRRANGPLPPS

For `CC#CC(=O)N1CCC[C@H]1c1nc(-c2ccc(C(=O)Nc3ccccn3)cc2)c2c(N)nccn12` [acalabrutinib], which “Percentage inhibition of kinase enzyme activity” value (“Percentage inhibition” below) (ERK1) is on record?
Its value is -2.38%.

And the “Percentage inhibition” value (HIPK4)?
Its value is -9.54%.

And the “Percentage inhibition” value (NEK7)?
Its value is -10.68%.

And the “Percentage inhibition” value (PAK2)?
Its value is -5.20%.

What about the “Percentage inhibition” value (HER4) of the same molecule?
Its value is 77.61%.

And the “Percentage inhibition” value (RSK2)?
The value was 0.054%.

What about the “Percentage inhibition” value (FMS) of the same molecule?
Its value is 7.76%.

And the “Percentage inhibition” value (FES)?
The value was -6.35%.

And the “Percentage inhibition” value (FGR)?
The value was 2.91%.

And the “Percentage inhibition” value (TYK2)?
The value was 12.80%.

What about the “Percentage inhibition” value (AurC) of the same molecule?
Its value is 7.21%.

What about the “Percentage inhibition” value (SGK) of the same molecule?
The value was -5.11%.

What about the “Percentage inhibition” value (MARK2) of the same molecule?
Its value is -9.24%.

And the “Percentage inhibition” value (MSK2)?
The value was 1.53%.

`C=CC(=O)N1CCC[C@@H](n2nc(-c3ccc(Oc4ccccc4)cc3)c3c(N)ncnc32)C1` [ibrutinib] was tested. Which “Percentage inhibition” value (ERK1) did it give?
Its value is 1.74%.

What about the “Percentage inhibition” value (HIPK4) of the same molecule?
The value was 2.60%.

What about the “Percentage inhibition” value (NEK7) of the same molecule?
Its value is 0.69%.

What about the “Percentage inhibition” value (PAK2) of the same molecule?
The value was -5.81%.

And the “Percentage inhibition” value (HER4)?
Its value is 98.60%.

And the “Percentage inhibition” value (RSK2)?
Its value is 7.41%.

And the “Percentage inhibition” value (FMS)?
Its value is 18.52%.

What about the “Percentage inhibition” value (FES) of the same molecule?
Its value is 0.68%.

What about the “Percentage inhibition” value (FGR) of the same molecule?
The value was 99.02%.

And the “Percentage inhibition” value (TYK2)?
The value was 6.93%.

What about the “Percentage inhibition” value (AurC) of the same molecule?
Its value is 6.95%.

And the “Percentage inhibition” value (SGK)?
Its value is -21.37%.

And the “Percentage inhibition” value (MARK2)?
The value was 2.67%.

What about the “Percentage inhibition” value (MSK2) of the same molecule?
Its value is -2.09%.

Which IC50 (ERK1) does the source give for `O=C(c1ccc(Oc2ccccc2)cc1Cl)c1c[nH]c2ncnc(N[C@@H]3CC[C@@H](CO)OC3)c12` [nemtabrutinib] here?
The IC50 was 0.543 µM.

And the “Inhibition of ERK1” value (ERK1)?
The value was “did not inhibit”.

What about the “Percentage inhibition” value (ERK1) of the same molecule?
The value was 61.74%.

What about the “Percentage inhibition” value (HIPK4) of the same molecule?
The value was 13.77%.

And the “Percentage inhibition” value (NEK7)?
The value was 3.06%.

And the “Percentage inhibition” value (PAK2)?
Its value is 93.68%.

And the “Percentage inhibition” value (HER4)?
The value was 95.14%.

And the “Percentage inhibition” value (RSK2)?
The value was 7.48%.

What about the “Percentage inhibition” value (FMS) of the same molecule?
Its value is 101.94%.

And the “Percentage inhibition” value (FES)?
Its value is 93.26%.

And the “Percentage inhibition” value (FGR)?
The value was 90.23%.

And the “Percentage inhibition” value (TYK2)?
The value was 10.79%.

And the “Percentage inhibition” value (AurC)?
The value was 65.10%.

And the “Percentage inhibition” value (SGK)?
The value was 1.16%.

And the “Percentage inhibition” value (MARK2)?
Its value is -4.16%.

What about the “Percentage inhibition” value (MSK2) of the same molecule?
The value was 5.69%.

For `C=CC(=O)N1CCC([C@@H]2CCNc3c(C(N)=O)c(-c4ccc(Oc5ccccc5)cc4)nn32)CC1` [zanubrutinib], which “Percentage inhibition” value (PAK2) is on record?
The value was 9.82%.

What about the “Percentage inhibition” value (HER4) of the same molecule?
Its value is 2.98%.

What about the “Percentage inhibition” value (FMS) of the same molecule?
Its value is 82.03%.

What about the “Percentage inhibition” value (FES) of the same molecule?
The value was 4.53%.

What about the “Percentage inhibition” value (FGR) of the same molecule?
The value was 2.22%.

What about the “Percentage inhibition” value (AurC) of the same molecule?
Its value is -0.85%.

And the “Percentage inhibition” value (SGK)?
Its value is -0.67%.

Which “Percentage inhibition” value (ERK1) does the source give for `COc1ccc(F)cc1C(=O)NCc1ccc(-c2nn([C@@H](C)C(F)(F)F)c(N)c2C(N)=O)cc1` [pirtobrutinib] here?
The value was -1.16%.

What about the “Percentage inhibition” value (HIPK4) of the same molecule?
Its value is 2.58%.

And the “Percentage inhibition” value (NEK7)?
Its value is -2.19%.

What about the “Percentage inhibition” value (PAK2) of the same molecule?
The value was 8.29%.

And the “Percentage inhibition” value (HER4)?
Its value is 69.88%.

What about the “Percentage inhibition” value (RSK2) of the same molecule?
The value was 2.95%.

And the “Percentage inhibition” value (FMS)?
Its value is -8.86%.

And the “Percentage inhibition” value (FES)?
Its value is 11.87%.

And the “Percentage inhibition” value (FGR)?
Its value is 18.17%.

What about the “Percentage inhibition” value (TYK2) of the same molecule?
The value was -2.78%.

And the “Percentage inhibition” value (AurC)?
The value was 39.97%.

And the “Percentage inhibition” value (SGK)?
Its value is 3.55%.

What about the “Percentage inhibition” value (MARK2) of the same molecule?
Its value is 2.21%.

And the “Percentage inhibition” value (MSK2)?
Its value is 1.57%.

Source: paper PMC12586182 (Frontiers in Oncology, 2025)
